From ChEMBL document CHEMBL5215007, “Polycyclic Polyprenylated Acylphloroglucinols Bearing a Lavandulyl-Derived Substituent from Garcinia xanthochymus Fruits” (J Nat Prod, 2022)
Calls of active or inactive are those of the source. No cut-off for these calls is given here.

Tests used:
Huh-7 [1] = test: Antiproliferative activity against human Huh-7 cells assessed as inhibition of cell proliferation incubated for 24 hrs by CCK-8 assay; format: functional, cell-based; conditions: Huh-7, 24 h
HepG2 = test: Antiproliferative activity against human HepG2 cells assessed as inhibition of cell proliferation incubated for 24 hrs by CCK-8 assay; format: functional, cell-based; conditions: HepG2, 24 h
Hep 3B2 = test: Antiproliferative activity against human Hep3B cells assessed as inhibition of cell proliferation incubated for 24 hrs by CCK-8 assay; format: functional, cell-based
Huh-7 [2] = test: Induction of apoptosis in human Huh-7 cells assessed as late apoptotic cells at 3.125 uM incubated for 24 hrs by Annexin V-FITC/PI staining based flow cytometric analysis (reference value: 3.19 %); format: functional
Huh-7 [3] = test: Induction of apoptosis in human Huh-7 cells assessed as late apoptotic cells at 12.5 uM incubated for 24 hrs by Annexin V-FITC/PI staining based flow cytometric analysis (reference value: 3.19 %); format: functional
Huh-7 [4] = test: Induction of apoptosis in human Huh-7 cells assessed as necrotic cells at 6.25 uM incubated for 24 hrs by Annexin V-FITC/PI staining based flow cytometric analysis (reference value: 1.67 %); format: functional
Huh-7 [5] = test: Induction of apoptosis in human Huh-7 cells assessed as early apoptotic cells at 6.25 uM incubated for 24 hrs by Annexin V-FITC/PI staining based flow cytometric analysis (reference value: 2.83 %); format: functional
Huh-7 [6] = test: Induction of apoptosis in human Huh-7 cells assessed as viable cells at 6.25 uM incubated for 24 hrs by Annexin V-FITC/PI staining based flow cytometric analysis (reference value: 92.31 %); format: functional; conditions: read-out: Activity
Huh-7 [7] = test: Induction of apoptosis in human Huh-7 cells assessed as late apoptotic cells at 6.25 uM incubated for 24 hrs by Annexin V-FITC/PI staining based flow cytometric analysis (reference value: 3.19 %); format: functional
Huh-7 [8] = test: Induction of apoptosis in human Huh-7 cells assessed as viable cells at 12.5 uM incubated for 24 hrs by Annexin V-FITC/PI staining based flow cytometric analysis (reference value: 92.31 %); format: functional; conditions: read-out: Activity
Huh-7 [9] = test: Antimigratory activity against human Huh-7 cells assessed as inhibition of cell migration at 6.25 to 12.5 uM incubated for 48 hrs by scratch wound healing assay; format: functional, cell-based; conditions: dose 6.25-12.5 µM
Huh-7 [10] = test: Induction of apoptosis in human Huh-7 cells assessed as early apoptotic cells at 3.125 uM incubated for 24 hrs by Annexin V-FITC/PI staining based flow cytometric analysis (reference value: 2.83 %); format: functional
Huh-7 [11] = test: Induction of apoptosis in human Huh-7 cells assessed as early apoptotic cells at 12.5 uM incubated for 24 hrs by Annexin V-FITC/PI staining based flow cytometric analysis (reference value: 2.83 %); format: functional
Huh-7 [12] = test: Induction of apoptosis in human Huh-7 cells assessed as necrotic cells at 12.5 uM incubated for 24 hrs by Annexin V-FITC/PI staining based flow cytometric analysis (reference value: 1.67 %); format: functional
Huh-7 [13] = test: Induction of apoptosis in human Huh-7 cells assessed as necrotic cells at 3.125 uM incubated for 24 hrs by Annexin V-FITC/PI staining based flow cytometric analysis (reference value: 1.67 %); format: functional
Huh-7 [14] = test: Induction of apoptosis in human Huh-7 cells assessed as viable cells at 3.125 uM incubated for 24 hrs by Annexin V-FITC/PI staining based flow cytometric analysis (reference value: 92.31 %); format: functional; conditions: read-out: Activity
[15] = target: Signal transducer and activator of transcription 3 (Homo sapiens) (UniProt P40763); test: Inhibition of STAT3 phosphorylation in human Huh-7 cells at 6.25 to 12.5 uM by Western blot analysis; format: cell-based; conditions: dose 6.25-12.5 µM
Signal transducer and activator of transcription 3 (Homo sapiens), sequence (P40763 whole entry): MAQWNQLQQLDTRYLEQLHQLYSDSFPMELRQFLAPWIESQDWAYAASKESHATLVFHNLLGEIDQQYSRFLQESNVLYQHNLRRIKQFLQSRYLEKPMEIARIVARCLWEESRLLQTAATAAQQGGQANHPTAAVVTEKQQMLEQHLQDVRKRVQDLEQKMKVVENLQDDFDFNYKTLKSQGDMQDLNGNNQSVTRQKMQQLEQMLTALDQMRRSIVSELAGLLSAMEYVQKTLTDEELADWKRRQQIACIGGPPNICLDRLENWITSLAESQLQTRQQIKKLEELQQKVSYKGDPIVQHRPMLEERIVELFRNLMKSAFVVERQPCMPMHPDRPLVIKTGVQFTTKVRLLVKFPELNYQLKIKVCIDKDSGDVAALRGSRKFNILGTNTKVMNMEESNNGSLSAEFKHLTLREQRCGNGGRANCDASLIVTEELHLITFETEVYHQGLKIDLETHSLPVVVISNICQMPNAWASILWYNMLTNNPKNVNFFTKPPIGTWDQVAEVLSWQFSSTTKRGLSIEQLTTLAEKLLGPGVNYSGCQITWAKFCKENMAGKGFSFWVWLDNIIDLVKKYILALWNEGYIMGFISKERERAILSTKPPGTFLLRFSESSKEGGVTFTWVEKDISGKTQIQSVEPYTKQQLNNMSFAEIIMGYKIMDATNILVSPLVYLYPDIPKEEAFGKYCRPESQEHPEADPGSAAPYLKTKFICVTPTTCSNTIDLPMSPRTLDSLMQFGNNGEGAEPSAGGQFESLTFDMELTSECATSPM

Row | Compound | IC50 (Huh-7 [1]) [µM] | IC50 (HepG2) [µM] | IC50 (Hep 3B2) [µM] | other results
1 | C=C(C)CC[C@@H]1C[C@]23C[C@H](CCC(C)(C)O)C(C)(C)[C@](CC=C(C)C)(C(=O)C(C(=O)c4ccc(O)c(O)c4)=C2OC1(C)C)C3=O | 17.3 | 9.5 | 15.8 | 
2 | CNC(=O)c1cc(Oc2ccc(NC(=O)Nc3ccc(Cl)c(C(F)(F)F)c3)cc2)ccn1 [SORAFENIB] | 9.7 | 16.6 | 12.4 | 
3 | CC(C)=CC[C@@H]1C[C@]23C[C@H](CCC(C)(C)O)C(C)(C)[C@](CC=C(C)C)(C(=O)C(C(=O)c4ccc(O)c(O)c4)=C2OC1(C)C)C3=O | 20.6 | 11.7 | 23.9 | 
4 | CC(C)=CC[C@@H]1C[C@]23C[C@H](CCC(C)(C)O)C(C)(C)OC2=C(C(=O)c2ccc(O)c(O)c2)C(=O)[C@@](CC=C(C)C)(C3=O)C1(C)C | 12.6 | 3.9 | 9 | 
5 | C=C(C)[C@H]1C[C@]23C[C@H](CC=C(C)C)C(C)(C)[C@](CC=C(C)C)(C(=O)C(C(=O)c4ccc(O)c(O)c4)=C2O[C@@H]1C=C(C)C)C3=O | 18.1 | 11 | 18.2 | 
6 | CC(C)=CC[C@@H]1C[C@]23C[C@@H](CC=C(C)C)C(C)(C)[C@](CC=C(C)C)(C(=O)C(C(=O)c4ccc(O)c(O)c4)=C2OC1(C)C)C3=O | 9.3 | 4.3 | 9.3 | Activity (Huh-7 [2]): 3.19%; Activity (Huh-7 [3]): 3.3%; Activity (Huh-7 [4]): 1.69%; Activity (Huh-7 [5]): 8.39%; viability at 6.25 µM (Huh-7 [6]): 86.5%; Activity (Huh-7 [7]): 3.38%; viability at 12.5 µM (Huh-7 [8]): 83.8%; Activity (Huh-7 [9]): Active; Activity (Huh-7 [10]): 10.88%; Activity (Huh-7 [11]): 10.38%; Activity (Huh-7 [12]): 2.55%; Activity (Huh-7 [13]): 1.53%; viability at 3.125 µM (Huh-7 [14]): 84.4%; inhibition [15]: Active

Now from value to molecule, other results behind:

Row | IC50 (Huh-7 [1]) [µM] | IC50 (HepG2) [µM] | Compound | IC50 (Hep 3B2) [µM] | other results
7 | 28.2 | 12.4 | C=C(C)CC[C@@H]1C[C@]23C[C@H](CC=C(C)C)C(C)(C)[C@](CC=C(C)C)(C(=O)C(C(=O)c4cccc(O)c4)=C2OC1(C)C)C3=O | 44.8 | 
8 | 27.2 | 23.2 | C=C(C)CC[C@@H](C[C@]12C[C@H](CC=C(C)C)C(C)(C)[C@](CC=C(C)C)(C(=O)C(C(=O)c3cccc(O)c3)=C1O)C2=O)C(=C)C | 20.8 | 
9 | 22.9 | 22.5 | C=C(C)CC[C@H]1C[C@]23C[C@@H](CC=C(C)C)C(C)(C)[C@](CC=C(C)C)(C(=O)C(C(=O)c4ccc(O)c(O)c4)=C2OC1(C)C)C3=O | 15.5 | 
10 | 9.3 | 11.3 | C=C(C)CC[C@@H]1C[C@]23C[C@@H](CC=C(C)C)C(C)(C)[C@](CC=C(C)C)(C(=O)C(C(=O)c4ccc(O)c(O)c4)=C2OC1(C)C)C3=O | 17.1 | Activity (Huh-7 [2]): 5.35%; Activity (Huh-7 [3]): 6.37%; Activity (Huh-7 [4]): 3.01%; Activity (Huh-7 [5]): 11.09%; viability at 6.25 µM (Huh-7 [6]): 80.3%; Activity (Huh-7 [7]): 5.65%; viability at 12.5 µM (Huh-7 [8]): 77.7%; Activity (Huh-7 [9]): Active; Activity (Huh-7 [10]): 11.74%; Activity (Huh-7 [11]): 11.75%; Activity (Huh-7 [12]): 4.17%; Activity (Huh-7 [13]): 2.09%; viability at 3.125 µM (Huh-7 [14]): 80.8%; inhibition [15]: Active
11 | 25.1 | 22 | C=C(C)[C@H]1C[C@]23C[C@H](CC=C(C)C)C(C)(C)[C@](CC=C(C)C)(C(=O)C(C(=O)c4cccc(O)c4)=C2O[C@@H]1C=C(C)C)C3=O | 17.9 | 
